Test results taken from publication PMC7429263 (ACS infectious diseases, 2020).
Values after ≈ are worked out from the molar mass of the structure shown. Like-named read-outs stand apart in the source and are kept apart here. Blank lines part the entries; values can stand above or below the molecule they belong to.

Columns and labels:
VanA E. faecalis BM 4166 = assay: standard microdilution antimicrobial assay; assay type: cell-based
[1] = tested on: VanA E. faecium ATCC BAA-2317; assay: standard microdilution antimicrobial assay; assay type: cell-based
VanA VRE, 4 strains [2] = assay: standard microdilution assay, panel of vancomycin-resistant organisms; assay type: cell-based, E. faecalis, E. faecium
[3] = tested on: VanA VRE E. faecalis BM 4166 and E. faecium ATCC BAA-2317; settings: 3 even at 100 μM; cited from earlier work
in vivo PK in mice = settings: iv
two VanA VRE strains [4] = settings: same two VanA VRE strains; cited from earlier work
[5] = tested on: VanA VRSA strain (VRS2), S. aureus; settings: cited from earlier work
VanA VRE, 4 strains [6] = settings: resistant pathogens with D-Ala-D-Lac cell wall precursor; cited from earlier work
[7] = tested on: VanA VRE E. faecalis BM 4166 and E. faecium ATCC BAA-2317; assay: microdilution antimicrobial assay with added LTA or other additives; assay type: cell-based; settings: 100 μg/mL LTA
[8] = tested on: VanA VRE E. faecalis BM 4166; settings: BM 4166, +LTA 100 μg/mL
[9] = tested on: VanA VRE E. faecalis BM 4166; assay: microbe, parasite or virus in culture; settings: Enterococcus faecalis
VanA E. faecium TX2465 = assay: standard microdilution antimicrobial assay; assay type: cell-based; settings: Enterococcus faecium
two VanA VRE strains [10] = assay: multi-passage resistance development assay; assay type: cell-based; settings: Enterococcus
[11] = tested on: MRSA S. aureus ATCC 43300; assay: standard microdilution antimicrobial assay; assay type: cell-based; settings: Staphylococcus aureus, ATCC43300|MRSA
[12] = tested on: VanA VRE E. faecalis BM 4166 and E. faecium ATCC BAA-2317; assay: bacteria cell membrane permeability assay; settings: 10 μM added at 5 min
[13] = tested on: VanA VRE E. faecium ATCC BAA-2317; assay type: cell-based; settings: ATCC BAA-2317, +LTA 100 μg/mL
[14] = tested on: VanB E. faecalis ATCC 51299; assay: standard microdilution antimicrobial assay; assay type: cell-based; settings: Enterococcus faecalis, ATCC51299
[15] = tested on: Sensitive S. aureus ATCC 25923; assay: standard microdilution antimicrobial assay; assay type: cell-based; settings: Staphylococcus aureus, ATCC25923
[16] = D-Ala-D-Ala to D-Ala-D-Lac remodeling; cited from earlier work

MIC (VanA E. faecalis BM 4166; VanA E. faecalis BM 4166): 63 µg/mL (≈ 39.2 µM)
MIC [1]: 63 µg/mL (≈ 39.2 µM)
SMILES: CN[C@H](CC(C)C)C(=O)N[C@H]1C(=O)N[C@@H](CC(N)=O)C(=O)N[C@H]2C(=O)N[C@H]3C(=O)N[C@H](C(=O)N[C@H](C(=O)N[C@@H](CCCNC(=N)N)C(=O)O)c4cc(O)cc(O)c4-c4cc3ccc4O)[C@H](O)c3ccc(c(Cl)c3)Oc3cc2cc(c3OC2OC(CO)C(O)[C@H](O)C2O[C@H]2CC(C)(N)[C@H](O)[C@H](C)O2)Oc2ccc(cc2Cl)[C@H]1O (stereo partly shown) [Arg-vancomycin (11)]

SMILES: CN[C@H](CC(C)C)C(=O)N[C@H]1C(=O)N[C@@H](CC(N)=O)C(=O)N[C@H]2C(=O)NC3C(=O)N[C@H](C(=O)N[C@H](C(=O)NCCC[N+](C)(C)C)c4cc(O)cc(O)c4-c4cc3ccc4O)[C@H](O)c3ccc(c(Cl)c3)Oc3cc2cc(c3OC2OC(CO)C(O)[C@H](O)[C@@H]2O[C@H]2CC(C)(NCc3ccc(-c4ccc(Cl)cc4)cc3)[C@H](O)[C@H](C)O2)Oc2ccc(cc2Cl)[C@H]1O (stereo partly shown) [C1-CBP-vancomycin (4)]
improvement in antimicrobial potency compared with vancomycin (VanA VRE, 4 strains [2]): ca. 1000 fold
induced cell membrane permeabilization, in words [3]: pronounced membrane permeabilization
AUC (in vivo PK in mice; 10 mg/kg): 48.4 Mg-h/mL
CL (in vivo PK in mice; 10 mg/kg): 2 mL/min/kg
Cmax (in vivo PK in mice; 10 mg/kg): 14.5 Mg/mL
Vss (in vivo PK in mice; 10 mg/kg): 0.64 L/kg
t1/2 (in vivo PK in mice; 10 mg/kg): 5.1 h
tmax (in vivo PK in mice; 10 mg/kg): 4.8 min
MIC [1]: 0.3 µg/mL

SMILES: CN[C@H](CC(C)C)C(=O)N[C@H]1C(=O)N[C@@H](CC(N)=O)C(=O)N[C@H]2C(=O)NC3C(=O)N[C@H](C(=O)N[C@H](C(=O)NCCC[N+](C)(C)C)c4cc(O)cc(O)c4-c4cc3ccc4O)[C@H](O)c3ccc(c(Cl)c3)Oc3cc2cc(c3OC2OC(CO)C(O)[C@H](O)[C@@H]2O[C@H]2CC(C)(N)[C@H](O)[C@H](C)O2)Oc2ccc(cc2Cl)[C@H]1O (stereo partly shown) [C1-vancomycin (3)]
induced cell membrane permeabilization, in words [3]: weaker
MIC [1]: 31 µg/mL

SMILES: CCCCCCCCCC(=O)N[C@@H](Cc1c[nH]c2ccccc12)C(=O)N[C@H](CC(N)=O)C(=O)N[C@@H](CC(=O)O)C(=O)N[C@@H]1C(=O)NCC(=O)N[C@@H](CCCN)C(=O)N[C@@H](CC(=O)O)C(=O)N[C@H](C)C(=O)N[C@@H](CC(=O)O)C(=O)NCC(=O)N[C@H](CO)C(=O)N[C@@H]([C@H](C)CC(=O)O)C(=O)N[C@@H](CC(=O)c2ccccc2N)C(=O)O[C@@H]1C [daptomycin]
rate of resistance emergence, in words (two VanA VRE strains [4]): raise resistance more rapidly and in a more pronounced manner than either 2 or 5

SMILES: CC(=O)NC[C@H]1CN(c2ccc(N3CCOCC3)c(F)c2)C(=O)O1 [linezolid]
rate of resistance emergence, in words (two VanA VRE strains [4]): raise resistance more rapidly and in a more pronounced manner than either 2 or 5

SMILES: CN(C)c1cc(NC(=O)CNC(C)(C)C)c(O)c2c1C[C@H]1C[C@H]3[C@H](N(C)C)C(O)=C(C(N)=O)C(=O)[C@@]3(O)C(O)=C1C2=O [tigecycline]
rate of resistance emergence, in words (two VanA VRE strains [4]): raise resistance more rapidly and in a more pronounced manner than either 2 or 5

SMILES: CN[C@H](CC(C)C)C(=O)N[C@H]1C(=O)N[C@@H](CC(N)=O)C(=O)N[C@H]2C(=O)N[C@H]3C(=O)N[C@H](C(=O)N[C@H](C(=O)O)c4cc(O)cc(O)c4-c4cc3ccc4O)[C@H](O)c3ccc(c(Cl)c3)Oc3cc2cc(c3O[C@@H]2O[C@H](CO)[C@@H](O)[C@H](O)[C@H]2O[C@H]2C[C@](C)(N)[C@H](O)[C@H](C)O2)Oc2ccc(cc2Cl)[C@H]1O [vancomycin (1), vancomycin]
activity in the thigh infection model, in words [5]: inactive
reduction of antimicrobial potency (VanA VRE, 4 strains [6]): 1000 fold
decrease of antimicrobial activity with added LTA [7]: no difference
MIC [8]: 250 µg/mL (≈ 173 µM)
MIC (VanA E. faecalis BM 4166; Enterococcus faecalis): 250 µg/mL (≈ 173 µM)
MIC [9]: 250 µg/mL (≈ 173 µM)
MIC (VanA E. faecium TX2465): 250 µg/mL (≈ 173 µM)
MIC (two VanA VRE strains [10]): 250 µg/mL (≈ 173 µM)
MIC [11]: 0.5 µg/mL (≈ 0.345 µM)
induced cell membrane permeabilization, in words [12]: no permeabilization
MIC [13]: 250 µg/mL (≈ 173 µM)
dose proportionality of PK, in words (in vivo PK in mice): well behaved dose proportional PK across all parameters
MIC [14]: 8 µg/mL (≈ 5.52 µM)
MIC [15]: 0.5 µg/mL (≈ 0.345 µM)
reduction of binding affinity [16]: 1000 fold
